Results: ChEMBL document CHEMBL1201862, “PubChem BioAssay data set” (2004)
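Values below derive from 48-hour exposures of cells grown in 96-well plates, with endpoints linearly interpolated between the two concentrations bracketing the appropriate inhibition level. The concentration for 50% growth inhibition is given as GI50.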 Calls of active or inactive are those of the source. No stated cut-off is given here; in the data, active = GI50 up to about 1.1 µM and inactive = higher.

Assays:
Test in all cases: inhibition of tumour cell growth, NCI panel, 48 h
[1] = tested on: NCI-H226
[2] = tested on: UO-31
[3] = tested on: SF-539
[4] = tested on: NCI-H522
[5] = tested on: OVCAR-5
[6] = tested on: ACHN
[7] = tested on: CCRF-CEM
[8] = tested on: MOLT-4
[9] = tested on: OVCAR-3
[10] = tested on: A498
[11] = tested on: A549
[12] = tested on: KM12
[13] = tested on: M14
[14] = tested on: KM-20L2
[15] = tested on: SF-268
[16] = tested on: OVCAR-4
[17] = tested on: SR
[18] = tested on: UACC-257
[19] = tested on: TK-10
[20] = tested on: PC-3

SMILES	GI50 [1]	GI50 [2]	GI50 [3]	GI50 [4]	GI50 [5]	GI50 [6]	GI50 [7]	GI50 [8]	GI50 [9]	GI50 [10]	GI50 [11]	GI50 [12]	GI50 [13]	GI50 [14]	GI50 [15]	GI50 [16]	GI50 [17]	GI50 [18]	GI50 [19]	GI50 [20]
C1COCCSC2=C(SCCO1)SC(=C1SC3=C(SCCOCCOCCS3)S1)S2	> 100 µM (inactive)	> 100 µM (inactive)	34.5 µM (inactive)	36.2 µM (inactive)	> 100 µM (inactive)	> 100 µM (inactive)	> 100 µM (inactive)	> 100 µM (inactive)	> 100 µM (inactive)	> 100 µM (inactive)	> 100 µM (inactive)	> 100 µM (inactive)	> 100 µM (inactive)	> 100 µM (inactive)	51.1 µM (inactive)	48.2 µM (inactive)	66.4 µM (inactive)	> 100 µM (inactive)	> 100 µM (inactive)	
O=C1NC2(NC(=O)C1=O)Nc1ccccc1S2	> 58.6 µM (inactive)	30.7 µM (inactive)	27 µM (inactive)	22.1 µM (inactive)	> 100 µM (inactive)	33.4 µM (inactive)	20.2 µM (inactive)	27.5 µM (inactive)	> 89.3 µM (inactive)	99.1 µM (inactive)	> 60.5 µM (inactive)	> 80.4 µM (inactive)	44.5 µM (inactive)	> 100 µM (inactive)	24.8 µM (inactive)	40 µM (inactive)	24.5 µM (inactive)	> 61.4 µM (inactive)	> 100 µM (inactive)	
O=C(O)\C=C/C=C/C=C/C=C/C(=O)O	> 100 µM (inactive)	> 100 µM (inactive)	> 100 µM (inactive)	> 100 µM (inactive)	> 100 µM (inactive)	> 100 µM (inactive)	> 100 µM (inactive)	> 100 µM (inactive)	> 100 µM (inactive)	> 100 µM (inactive)	> 100 µM (inactive)	> 100 µM (inactive)	> 100 µM (inactive)	> 100 µM (inactive)	> 100 µM (inactive)	> 100 µM (inactive)	> 100 µM (inactive)	> 100 µM (inactive)		
Nc1cc2c(C3OC(CO)C(O)C3O)n[nH]c2c(=S)[nH]1 (stereo unspecified)	> 100 µM (inactive)	> 100 µM (inactive)	> 100 µM (inactive)	> 100 µM (inactive)	> 100 µM (inactive)	> 100 µM (inactive)	> 100 µM (inactive)	> 100 µM (inactive)		> 100 µM (inactive)	> 100 µM (inactive)	> 100 µM (inactive)	> 100 µM (inactive)	> 100 µM (inactive)	> 100 µM (inactive)	92.5 µM (inactive)	> 100 µM (inactive)	> 100 µM (inactive)		
CCc1ccc(/C=C\c2cc(OC)c(OC)c(OC)c2)cc1	0.024 µM (active)	0.0355 µM (active)	0.0101 µM (active)	0.0118 µM (active)	0.391 µM (active)	0.0285 µM (active)	0.00998 µM (active)	0.043 µM (active)	0.00843 µM (active)	0.014 µM (active)	0.0223 µM (active)	0.0452 µM (active)	0.0502 µM (active)	0.0342 µM (active)	0.149 µM (active)	0.617 µM (active)	0.00247 µM (active)	0.0268 µM (active)	0.337 µM (active)	0.00325 µM (active)
O=C(OC[C@H]1O[C@@H](OC(=O)c2cc(O)c(O)c(O)c2)[C@H](OC(=O)c2cc(O)c(O)c(O)c2)[C@@H](OC(=O)c2cc(O)c(O)c(O)c2)[C@@H]1OC(=O)c1cc(O)c(O)c(O)c1)c1cc(O)c(O)c(O)c1 [PENTAGALLOYL GLUCOSE]	1.49 µM (inactive)	5.79 µM (inactive)	2.49 µM (inactive)	3.46 µM (inactive)	7.94 µM (inactive)	3.89 µM (inactive)	3.33 µM (inactive)	3 µM (inactive)	3.78 µM (inactive)	6.32 µM (inactive)	3.54 µM (inactive)	2.34 µM (inactive)	7.23 µM (inactive)	4.27 µM (inactive)	4.57 µM (inactive)	8.91 µM (inactive)	4.13 µM (inactive)	14.9 µM (inactive)	4.88 µM (inactive)	
CC1(C)OC(=O)C(=Cc2ccc(O)cc2)C(=O)O1	> 100 µM (inactive)	> 100 µM (inactive)	> 100 µM (inactive)	> 100 µM (inactive)	> 100 µM (inactive)	> 100 µM (inactive)	> 100 µM (inactive)	> 100 µM (inactive)	> 100 µM (inactive)	> 100 µM (inactive)	> 100 µM (inactive)	> 100 µM (inactive)	> 100 µM (inactive)	> 100 µM (inactive)	> 100 µM (inactive)	> 100 µM (inactive)	> 100 µM (inactive)	> 100 µM (inactive)	> 100 µM (inactive)	
O=[As]O	> 48.3 µM (inactive)	> 100 µM (inactive)	22.8 µM (inactive)	22.8 µM (inactive)	> 100 µM (inactive)	> 100 µM (inactive)	15.6 µM (inactive)	> 56.8 µM (inactive)	> 45.7 µM (inactive)	> 74.6 µM (inactive)	> 100 µM (inactive)	> 100 µM (inactive)	> 50.5 µM (inactive)	48.3 µM (inactive)	> 47.1 µM (inactive)	> 91.6 µM (inactive)	18.9 µM (inactive)	> 48.6 µM (inactive)	> 100 µM (inactive)	> 100 µM (inactive)
